Assay results published in patent publication EP0297523A2, “Process for the preparation of elaiophyline and the use thereof” (HOECHST AKTIENGESELLSCHAFT, priority 1987, dated 1989).

Columns and labels:
[1] = system: Trichostrongylus colubriformis; test: Anthelmintic effect in artificially infected lambs (small intestine nematodes), coproscopy and necropsy; type: in vivo; conditions: up to 14 days after application
Description: (§1) Die anthelminthische Wirkung vom Elaiophylin wurde an Lämmern mit 30 - 40 kg Körpergewicht untersucht. Dazu wurden die Lämmer artifiziell mit Infektionsstadien von Labmagen- (Haemonchus contortus) und Dünndarm-(Trichostrongylus colubriformis) Nematoden infiziert. Nach Abschluß der Entwicklungszeit (Präpatenzperiode) der Nematoden erfolgte die Applikation von Elaiophylin in Dosierungen von 2,5, 5,0 und 10,0 mg/kg (p.o.) bzw. 2,5 mg/kg (subcutan).
(§2) Durch koproskopische Untersuchungen vor und bis zu 14 Tagen nach der Applikation des Elaiophylins und anschließende Sektion mit helminthologischer Aufarbeitung wurde die prozentuale Reduktion der Schaf-Nematoden ermittelt (s. Tab. 1). Tabelle 1

Haemonchus contortus = test: Anthelmintic effect in artificially infected lambs (abomasal nematodes), coproscopy and necropsy; type: in vivo; conditions: up to 14 days after application
Description: as §1, §2

For `CC[C@@H]1[C@@H](C)O[C@@](O)([C@@H](C)[C@H](O)[C@H](C)[C@H]2OC(=O)/C=C/C=C/[C@H](C)[C@@H]([C@@H](C)[C@@H](O)[C@H](C)[C@@]3(O)C[C@@H](O[C@H]4C[C@H](O)[C@H](O)[C@H](C)O4)[C@H](CC)[C@@H](C)O3)OC(=O)/C=C/C=C/[C@@H]2C)C[C@H]1O[C@H]1C[C@H](O)[C@H](O)[C@H](C)O1` [Elaiophylin], the “proz. Reduktion der Nematoden T. colubriformis” value ([1]; lambs 30 - 40 kg, 2,5 mg p.o.) was 28,4%, the “proz. Reduktion der Nematoden T. colubriformis” value ([1]; lambs 30 - 40 kg, 2,5 mg s.c.) was 35,1% and the “proz. Reduktion der Nematoden T. colubriformis” value ([1]; lambs 30 - 40 kg, 5,0 mg p.o.) was 73,8%. The “proz. Reduktion der Nematoden T. colubriformis” value ([1]; lambs 30 - 40 kg, 10,0 mg p.o.) was 73,8%, the “proz. Reduktion der Nematoden H. contortus” value (Haemonchus contortus; lambs 30 - 40 kg, 2,5 mg p.o.) was 44,6% and the “proz. Reduktion der Nematoden H. contortus” value (Haemonchus contortus; lambs 30 - 40 kg, 2,5 mg s.c.) was 46,5%. The “proz. Reduktion der Nematoden H. contortus” value (Haemonchus contortus; lambs 30 - 40 kg, 5,0 mg p.o.) was 89,3% and the “proz. Reduktion der Nematoden H. contortus” value (Haemonchus contortus; lambs 30 - 40 kg, 10,0 mg p.o.) was 85,0%.
